We go through three molecules from patent publication US20040132740A1, “Novel antibiotics” (priority 2001, published 2004).

Structures can show the parent of a compound that is named as a salt.

For series [1], the system named is St. aureus. As to the kind of experiment: Minimum inhibitory concentration in vitro against St. aureus. It counts as cell-based. Particulars: Staphylococcus aureus, aqueous solution of hydrochloride salts. How it is done: (§1) An aqueous solution of the salts of the compounds reported in this invention namely compound (A) and compound (B) were tested in vitro against E. coli and St. aureus according to an established clinical procedure (Mackie and McCartney: Practical Medical Microbiology, Churchill livingstone, 1996, 14th edition, p159-163).

The subject of series [2] is bacteria. As to the kind of experiment: Further incubation of the positive samples for up to 16 hours (bacterial re-growth). The series is classed as cell-based. How it is done:
(§2) The experimental work was carried out according to an established clinical procedure […] (Mackie and McCartney, ibid).

A short description of series [3]: LD50 on mice. Particulars: mouse, in vivo.
Series [4] has as its system E. coli. In words: Minimum inhibitory concentration in vitro against E. coli. It counts as cell-based. Particulars: Escherichia coli, aqueous solution of hydrochloride salts. How it is done: as §1
The subject of series [5] is Staphylococcus aureus. As to the kind of experiment: MIC / effective maintenance dose to control bacterial re-growth, clinically isolated Staphylococcus aureus. The series is classed as cell-based. Particulars: clinically isolated microorganism, read-out: effective maintenance dose necessary to control bacterial re-growth (MIC), Staphylococcus aureus. The procedure: (§3) The minimum inhibitory concentration (MIC) of compound (A) and ciprofloxacin were also studied using clinically isolated microorganism staphylococcus aureus and pseudomotias aeruginose.
as §2

For series [6], the system named is Pseudomones aeruginose. As to the kind of experiment: MIC / effective maintenance dose to control bacterial re-growth, clinically isolated Pseudomones aeruginose. It counts as cell-based. To be noted: clinically isolated microorganism. The procedure:
as §3, §2

In series [7] the test system is gram-positive and gram-negative organisms. As to the kind of experiment: Antibacterial effect compared with ciprofloxacin hydrochloride under the same experimental conditions. It counts as cell-based, E. coli and St. aureus. Particulars: hydrochloride salt. How it is done: as §1

In turn, `CN1CCN(c2cc3c(cc2F)c(=O)ccn3C2CC2)CC1` (as salt: hydrochloride) [Compound (B), 1-cyclopropyl-6-fluoro-1,4-dihydro-4-oxo-7-(1-(4-methyl)piperazinyl)-quinoline] registered a melting point of 238 to 240 °C.
As to `O=c1ccn(C2CC2)c2cc(N3CCNCC3)c(F)cc12` [Compound (A) HCl salt, 1-cyclopropyl-6-fluoro-1,4-dihydro-4-oxo-7(1-piperazinyl)-quinoline], the MIC in series [1] stood at 0.08 µg/mL; in series [4], 0.01 µg/mL; in series [5], 0.06 µg/mL. The “sensitivity and effectiveness as antibacterial agent” value in series [2] (compared with ciprofloxacin hydrochloride) is “more sensitive and effective”. Further, the “bacterial growth after further incubation of the positive samples” value in series [2] (incubation up to 16 hours, dose of 0.0 μg/ml printed for compound (A)) is “very slow bacterial growth”. Moreover, the median lethal dose (LD50) in series [3] was found to be 28 mg/kg. In addition, the “effective maintenance dose necessary to control bacterial re-growth (MIC), Pseudomones aeruginose” value in series [6] was 0.05 µg/mL. For the same molecule, in series [7], the “antibacterial effect towards gram-positive and gram-negative organisms” value is on record as “better antibacterial effect”.
Turning to `CN1CCN(c2cc3c(cc2F)c(=O)ccn3C2CC2)CC1` [Compound (B), 1-cyclopropyl-6-fluoro-1,4-dihydro-4-oxo-7-(1-(4-methyl)piperazinyl)-quinoline], the “antibacterial effect towards gram-positive and gram-negative organisms” value in series [7] is “better antibacterial effect”.

A word on the melting point: it is the temperature, or range, at which the solid turns liquid. For orientation: MIC means the smallest concentration in the dilution series that meets the test's criterion for growth inhibition. What is called LD50 is the dose expected to kill half of the subjects tested.
